The values below are quoted from earlier work in patent US4380639A, “Substituted 1,2,5-thiadiazole derivatives” (Bristol-Myers Company, priority 1981, dated 1983).

The conditions of data set [1]: in vivo.
The test system of another data set is peptic ulcer disease. As to conditions: clinical evaluation, Gray et al., Lancet 1977.

For `CNC(=S)NCCCCc1cnc[nH]1` [Burimamide], the oral absorption result in data set [1] is recorded as “oral absorption is poor”. Turning to `CNC(=NC#N)NCCSCc1[nH]cnc1C` [Cimetidine], the “H2 -antagonist potency/effectiveness relative to comparator” value in the data set with H2 -receptor is “as effective an H2 -antagonist as metiamide”. Besides, in the data set on peptic ulcer disease, the “therapeutic effectiveness in peptic ulcer disease” value was “effective therapeutic agent in the treatment of peptic ulcer disease”. Regarding `CNC(=S)NCCSCc1[nH]cnc1C` [Metiamide], the “H2 -antagonist potency/effectiveness relative to comparator” value in the data set with H2 -receptor is reported as “more potent than burimamide”.
